Data: the supplement of paper PMC3493320

Tested on: NCI-H295R
Experiment: IC50 (antiproliferative, ATP content)
Conditions: 48 h
Summary of the method: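 Compounds were pin-transferred at 8 final concentrations between 0.6 nM and 46 µM onto adrenocortical carcinoma cells (1500 per well, 1536-well plates) that had been cultured overnight in serum-free DMEM with ITS. Plates then stood 48 h at 37 °C, 5% CO2, and ATP was detected by CellTiter-Glo luminescence. IC50 was derived from logistic fits of normalised signal, and compounds giving no concentration response were noted as above the top dose.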

Row | SMILES | IC50 [µM]
1 | CCCCC(O)c1ccccc1 (configuration not stated) | > 46
2 | c1ccc2ccccc2c1 | > 46
3 | CC1(C)OC(=O)NC1=O | > 46
4 | CCOc1ccc2ccccc2c1C(=O)N[C@@H]1C(=O)N2[C@@H]1SC(C)(C)[C@@H]2C(=O)[O-].O.[Na+] | > 46
5 | CC(=O)Nc1ccccc1 | > 46
6 | Cc1cccc(Nc2ncccc2C(=O)O)c1C | > 46
7 | CN(CCOc1ccc(NS(C)(=O)=O)cc1)CCc1ccc(NS(C)(=O)=O)cc1 | > 46
8 | Cc1oncc1C(=O)Nc1ccc(C(F)(F)F)cc1 | > 46
9 | O[C@@H]([C@@H]1O\C(=C/[C@H](NC(N)=N)[C@H]1NC(C)=O)C(O)=O)[C@H](O)CO | > 46
10 | CCO[C@@H]1O[C@H](C(COCc2ccccc2)OCc2ccccc2)[C@H](OCc2ccccc2)[C@H]1O (some centres not stated) | > 46
11 | CCCCCCCCCCCCCCCC(=O)OC(C)C | > 46
12 | C=CCOc1ccccc1OCC(O)CNC(C)C.Cl (configuration not stated) | > 46
13 | C[N+](C)(C)CCOC(N)=O.[Cl-] | > 46
14 | CCON=O | > 46
15 | CCCCNC(=O)NS(=O)(=O)c1ccc(C)cc1 | > 46
16 | c1ccc(-c2nc[nH]c2-c2ccccc2)cc1 | > 46
17 | COc1c(N2C[C@@H]3CCCN[C@@H]3C2)c(F)cc2c(=O)c(C(=O)O)cn(C3CC3)c12.Cl | > 46
18 | CN(C)CC/C=C1/c2ccccc2COc2ccc(CC(=O)O)cc21.Cl | > 46
19 | C[C@@H](CN(C)C)CN1c2ccccc2Sc2ccccc21.C[C@@H](CN(C)C)CN1c2ccccc2Sc2ccccc21.O=C(O)[C@@H](O)[C@@H](O)C(=O)O | > 46
20 | O=C1CN=C(c2ccccc2)c2cc(Cl)ccc2N1CC1CC1 | > 46
21 | CC(C)(Oc1ccc(CCNC(=O)c2ccc(Cl)cc2)cc1)C(=O)O | > 46
22 | CC(C)NCC(O)c1cc(O)cc(O)c1.CC(C)NCC(O)c1cc(O)cc(O)c1.O=S(=O)(O)O (configuration not stated) | > 46
23 | C[C@@H]1O[C@@H](OC[C@H]2O[C@@H](Oc3c(-c4ccc(O)c(O)c4)oc4cc(O)cc(O)c4c3=O)[C@H](O)[C@@H](O)[C@@H]2O)[C@H](O)[C@H](O)[C@H]1O | > 46

Row | SMILES | IC50 [µM]
24 | CCC(C(=O)OCCOCCN(CC)CC)c1ccccc1.O=C(O)CC(O)(CC(=O)O)C(=O)O (configuration not stated) | > 46
25 | NC1=NC=NC2=C1N=CN2[C@@H]3O[C@H](COP(OP(OC[C@H]4O[C@@H]([N@@+]5=CC=CC(C(N)=O)=C5)[C@H](O)[C@@H]4O)([O-])=O)(O)=O)[C@@H](O)[C@H]3O | > 46
26 | CN[C@@H]1[C@H](O[C@H]2[C@H](O[C@H]3[C@H](O)[C@@H](O)[C@H](NC(=N)N)[C@@H](O)[C@@H]3NC(=N)N)O[C@@H](C)[C@]2(O)C=O)O[C@@H](CO)[C@H](O)[C@H]1O.CN[C@@H]1[C@H](O[C@H]2[C@H](O[C@H]3[C@H](O)[C@@H](O)[C@H](NC(=N)N)[C@@H](O)[C@@H]3NC(=N)N)O[C@@H](C)[C@]2(O)C=O)O[C@@H](CO)[C@H](O)[C@H]1O.O=S(=O)(O)O.O=S(=O)(O)O.O=S(=O)(O)O | > 46
27 | O=C(OCc1ccccc1)c1ccc(O)cc1 | > 46
28 | O=C1c2ccccc2C(=O)C1c1ccc(F)cc1 | > 46
29 | CN1CCN(c2c(F)cc3c(=O)c(C(=O)O)cn(CCF)c3c2F)CC1 | > 46
30 | O=C(Cn1ccnc1[N+](=O)[O-])NCc1ccccc1 | > 46
31 | CCCC(=O)O[C@]1(C(=O)CCl)[C@@H](C)C[C@H]2[C@@H]3CCC4=CC(=O)C=C[C@]4(C)[C@@]3(F)C(=O)C[C@@]21C | > 46
32 | F[C@]1([C@](C[C@@H]3C)([H])[C@@]4([H])[C@]([C@@](CC4)(O)[C@@](C)=O)(C)C[C@@H]1O)[C@](C=C2)(C)C3=CC2=O | > 46
33 | CC(=O)Nc1ccc(C(=O)O)cc1 | > 46
34 | OCc1ccccc1 | > 46
35 | Cl.N=C(N)NC(=N)NCCc1ccccc1 | > 46
36 | CCC(=O)NCC[C@@H]1CCc2ccc3c(c21)CCO3 | > 46
37 | CC(C)COCC(CN(Cc1ccccc1)c1ccccc1)N1CCCC1 (configuration not stated) | > 46
38 | COc1ccc(C[C@H](C)NC[C@@H](O)c2ccc(O)c(NC=O)c2)cc1.COc1ccc(C[C@H](C)NC[C@@H](O)c2ccc(O)c(NC=O)c2)cc1.O=C(O)/C=C/C(=O)O | > 46
39 | Cc1c(N(C)CS(=O)(=O)[O-])c(=O)n(-c2ccccc2)n1C.[Na+] | > 46
40 | CNNCc1ccc(C(=O)NC(C)C)cc1.Cl | > 46
41 | COc1ccc2nc(NC(=O)Nc3ccccc3)sc2c1 | > 46
42 | CC(=O)CC(c1ccccc1)c1c([O-])c2ccccc2oc1=O.[K+] (configuration not stated) | > 46
43 | CCN(CC)CCOc1ccc2c(c1)C(=O)c1cc(OCCN(CC)CC)ccc1-2 | > 46
44 | CN[C@@H]1[C@@H](O)[C@@H](O[C@@H]2[C@@H](O)[C@H](O[C@H]3O[C@H](CN)[C@@H](O)[C@H](O)[C@H]3O)[C@@H](N)C[C@H]2NC(=O)C(O)CN)OC[C@]1(C)O.O=S(=O)(O)O (some centres not stated) | > 46
45 | C/14=C(/C[C@H]([C@H]2[C@H]3[C@](CC[C@H]\12)([C@@](C#C)(O)CC3)C)C)CC(CC4)=O | > 46
46 | CCCCCCCCCCCCOS(=O)(=O)[O-].[Na+] | > 46

Row | SMILES | IC50 [µM]
47 | CCc1nnc(NS(=O)(=O)c2ccc(N)cc2)s1 | > 46
48 | O=[C@](NC5=CC(C(F)(F)F)=CC=C5C(F)(F)F)[C@@H]4[C@@]3(C)CC[C@]2([H])[C@@]1(C)C=CC(N[C@@]([H])1CC[C@]([H])2[C@@]([H])3CC4)=O | > 46
49 | COc1ccc2cc3[n+](cc2c1OC)CCc1cc2c(cc1-3)OCO2.[Cl-] | > 46
50 | CN1CCCCC1CCN1c2ccccc2Sc2ccc(S(C)=O)cc21 (configuration not stated) | > 46
51 | Cc1cc(C)c(NC(=O)C[C@H](CC(=O)[O][Na])c2cccc3ccccc23)c(C(=O)N2CCC3(CCCC3)CC2)c1 | > 46
52 | CC(=O)Oc1ccc2c3c1O[C@H]1[C@@H](OC(C)=O)C=C[C@H]4[C@@H](C2)N(C)CC[C@@]341 | > 46
53 | CN1CC(=O)N2[C@H](c3ccc4c(c3)OCO4)c3[nH]c4ccccc4c3C[C@@H]2C1=O | > 46
54 | O=CCCCC=O | > 46
55 | C=CCNC(N)=S | > 46
56 | C[N+]12CCC(CC1)C(OC(=O)C(O)(c1ccccc1)c1ccccc1)C2.[Br-] (configuration not stated) | > 46
57 | [C@@]2\1(\C(=C/C(/C=C/1)=O)[C@H](C[C@@H]4[C@@H]2[C@H](C[C@@]3([C@](C(=O)CO)(O)CC[C@H]34)C)O)C)C | > 46
58 | Nc1ccc(S(=O)(=O)c2ccc(N)cc2)cc1 | > 46
59 | CCOC(=O)c1ccccc1C(=O)OCC | > 46
60 | [Cl][In]([Cl])[Cl] | > 46
61 | Cc1c(Cl)c(=O)oc2cc(OP(=O)(OCCCl)OCCCl)ccc12 | > 46
62 | CO/N=C(\C(=O)N[C@@H]1C(=O)N2C(C(=O)O)=C(CSc3nnnn3C)CS[C@H]12)c1csc(N)n1.CO/N=C(\C(=O)N[C@@H]1C(=O)N2C(C(=O)O)=C(CSc3nnnn3C)CS[C@H]12)c1csc(N)n1.Cl | > 46
63 | Cl.Cl.c1ccc(CNCCNCc2ccccc2)cc1 | > 46
64 | ClC(Cl)Cl | > 46
65 | O=S(=O)(O)c1cc(I)c(O)c2ncccc12 | > 46
66 | O=C3N1/C(=C(\CS[C@@H]1[C@@H]3NC(=O)Cn2cnnn2)CSc4nnc(C)s4)C(O)=O | > 46
67 | Cc1ncc[nH]1 | > 46
68 | COCCOC(=O)C1=C(C)NC(C)=C(C(=O)OC(C)C)C1c1cccc([N+](=O)[O-])c1 (configuration not stated) | > 46
69 | CC(=O)Oc1cccc(C(=O)O)c1OC(C)=O | > 46

Row | SMILES | IC50 [µM]
70 | O=C([O-])c1ccc(NC(=O)[C@H](Cc2ccc(O)cc2)NC(=O)c2ccccc2)cc1.[Na+] | > 46
71 | CC(C)(C)NCC(O)c1cc(Cl)c(N)c(Cl)c1 (configuration not stated) | > 46
72 | CC(O)C(=O)O.CCOc1ccc2nc3cc(N)ccc3c(N)c2c1.O | > 46
73 | C[N+](C)(C)CC[N+]1(C)Cc2c(Cl)c(Cl)c(Cl)c(Cl)c2C1.[Cl-].[Cl-] | > 46
74 | Nc1ccc(S(=O)(=O)Nc2ccc(Cl)nn2)cc1 | > 46
75 | O=C1CN(N=Cc2ccc(-c3ccc([N+](=O)[O-])cc3)o2)C(=O)[N-]1.[Na+] | > 46
76 | Cc1ccc(=O)n(-c2ccccc2)c1 | > 46
77 | CC1=C[C@H](O)CC(C)(C)[C@H]1/C=C/C(C)=C/C=C/C(C)=C/C=C/C=C(C)/C=C/C=C(C)/C=C/C1=C(C)C[C@@H](O)CC1(C)C | > 46
78 | O=C1[O][Pt]2([NH][C@@H]3CCCC[C@H]3[NH]2)[O]C1=O | > 46
79 | Cc1cc(OI)c(C(C)C)cc1-c1cc(C(C)C)c(OI)cc1C | > 46
80 | CC(=O)N[C@@H](CC(=O)N[C@@H](CCC(=O)O)C(=O)O)C(=O)O | > 46
81 | CCN[C@H]1C[C@H](C)S(=O)(=O)c2sc(S(N)(=O)=O)cc21.Cl | > 46
82 | O=C(Nc1ccc(O)cc1)c1ccccc1O | > 46
83 | O=c1[nH]cc(N(CCCl)CCCl)c(=O)[nH]1 | > 46
84 | O=C1OC(c2ccc(O)c(S(=O)(=O)[O-])c2)(c2ccc(O)c(S(=O)(=O)[O-])c2)c2c(Br)c(Br)c(Br)c(Br)c21.[Na+].[Na+] | > 46
85 | N#CCCN.N#CCCN.O=C(O)/C=C/C(=O)O | > 46
86 | CC[N+](CC)(CC)CCOc1ccc(/C=C/c2ccccc2)cc1.[I-] | > 46
87 | Nc1nc(O)c(-c2ccccc2)o1 | > 46
88 | Nc1nc(F)nc2c1ncn2[C@H]1O[C@@H](CO)[C@H](O)[C@H]1O | > 46
89 | Cc1ncc2n1-c1ccc(Cl)cc1C(c1ccccc1F)=NC2.Cl | > 46
90 | CN(C)CCCSc1ccccc1NC(=O)/C=C/c1ccccc1 | > 46
91 | C[C@@H]1C[C@H]2[C@@H]3C[C@H](F)C4=CC(=O)C=C[C@]4(C)[C@@]3(F)[C@@H](O)C[C@]2(C)[C@@]1(O)C(=O)CO | > 46
92 | Cc1ccc(/N=C/N(C)/C=N/c2ccc(C)cc2C)c(C)c1 | > 46
